The test system of data set [1] is lung cancer cell line A-549. The data set can be described thus: In vitro cytotoxicity viability assay (crystal violet). In kind it is cell-based. The note with it: Homo sapiens, A549. The method, then: (§1) The cells were seeded in 96-well plates at a cell concentration of 1 × 10^4 cells per well in 100 µL of growth medium. Fresh medium containing different concentrations of the test sample was added 24 h after seeding. Serial two-fold dilutions of the tested chemical compound were added to confluent cell monolayers dispensed into 96-well, flat-bottomed microliter plates (Falcon, NJ, USA) using a multichannel pipette. The microliter plates were incubated at 37 °C in a humidified incubator with 5% CO2 for a period of 48 h. Three wells were used for each concentration of the test sample. Control cells were incubated without test sample and with or without DMSO. The little percentage of DMSO present in the wells (maximal 0.1%) was found not to affect the experiment. After incubation of the cells at 37 °C, various concentrations of sample were added, and the incubation was continued for 24 h and viable cells yield was determined by a colorimetric method. In brief, after the end of the incubation period, media were aspirated and the crystal violet solution (1%) was added to each well for at least 30 min. The stain was removed and the plates were rinsed using tap water until all excess stain is removed. Glacial acetic acid (30%) was then added to all wells and mixed thoroughly, and then the absorbance of the plates were measured after gently shaken on microplate reader (TECAN, Inc., Morrisville, NC, USA), using a wavelength of 490 nm. All results were corrected for background absorbance detected in wells without added stain. Treated samples were compared with the cell control in the absence of the tested compounds. All experiments were carried out in triplicate. The cell cytotoxic effect of each tested concentration was calculated. The optical density was measured with the microplate reader (SunRise, TECAN, Inc., Morrisville, NC, USA) to determine the number of viable cells and the percentage of viability was calculated as [1 − (ODt/ODc)] × 100% where ODt is the mean optical density of wells treated with the tested sample and ODc is the mean optical density of untreated cells. The relation between surviving cells and drug concentration is plotted to get the survival curve of each tumor cell line after treatment. […] The biological evaluation was done at the Regional Center for Mycology & Biotechnology, Al-Azhar University.

Data set [2] deals with breast cancer cell line MCF-7. The description is as above. The class given is cell-based. The note with it: Homo sapiens, MCF7. How it is done: as §1
Data set [3] deals with rats. The following applies: oral administration in rats; cited from earlier work.

Values after ≈ are worked out from the molar mass of the structure shown. Values joined by “and” are separate entries in the source; they are usually repeats but may differ in a detail not shown here. Equal entries are not always repeated. Structures can show the parent of a compound that is named as a salt. Where two headings read alike, the source gives them in different places.

`CP(=O)(O)CCC(N)C(=O)O` (centres unmarked) [Phosphinothricin, 2-amino-4-(hydroxymethyl-phosphinylbutyric acid ammonium salt]: the IC50 in data set [1] was 45.8 µg/mL and 253 µM; in data set [2], 32.6 µg/mL and 180 µM. In data set [3], the LD50 is recorded as 2170 mg/kg.
On to `NCCCC(O)(P(=O)(O)O)P(=O)(O)O` [Alendronate, reference compound], for which the IC50 in data set [1] (read-out: IC50) is 19 µg/mL (≈ 76.3 µM); in data set [2] (MCF-7, read-out: IC50), 89.4 µg/mL (≈ 359 µM).

One may read the IC50 as the concentration that inhibits the measured activity by half. A word on the LD50: it is the dose expected to kill half of the subjects tested.
